Results: PubChem BioAssay (NCI)
Several values for one entry are separate records, joined by “and”; a condition that tells them apart may be missing. Equal entries are not always repeated.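 In this assay, cells in 96-well plates receive the compound at five concentrations for 48 hours. Endpoints are linearly interpolated between the surrounding concentrations. GI50 = concentration required for 50% inhibition of growth. TGI marks complete inhibition of growth.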

What was measured:
Assay in all cases: NCI anticancer screen, dose series, 48 h
[1] = system: BT-549 breast
[2] = system: KM12 colon
[3] = system: NCI-H226 lung
[4] = system: U251 CNS
[5] = system: 786-0 renal
[6] = system: COLO 205 colon
[7] = system: MALME-3M melanoma
[8] = system: UACC-62 melanoma
[9] = system: SW-620 colon
[10] = system: TK-10 renal

With `CCN1C/C(=C\c2cc(OC)c(OC)cc2OC)C(=O)/C(=C/c2cc(OC)c(OC)cc2OC)C1` the GI50 [1] was 2.87 µM, the TGI [1] was 8.72 µM and the GI50 [2] was 1.57 µM. The TGI [2] was 3.04 µM, the GI50 [3] was 2.59 µM and the TGI [3] was 5.59 µM. It also gave a GI50 [4] of 3.08 µM, a TGI [4] of 14.3 µM and a GI50 [5] of 2.87 µM. It also gave a TGI [5] of 8.09 µM, a GI50 [6] of 2.31 µM and a TGI [6] of 5.43 µM. The GI50 [7] was 1.94 µM, the TGI [7] was 3.59 µM and the GI50 [8] was 2.13 µM. The TGI [8] was 4.28 µM, the GI50 [9] was 3.2 µM and the TGI [9] was 13.3 µM. It also gave a GI50 [10] of 3.88 µM and a TGI [10] of 11.3 µM.
For `COc1ccc2c(c1)/C(=C\c1c(-c3cc(OC)ccc3OC)nc3sc(C)cn13)C(=O)N2C`, the GI50 [1] was 32.3 µM, the TGI [1] was greater than 100 µM and the GI50 [2] was 37.7 µM. The TGI [2] was greater than 100 µM, the GI50 [3] was 30.9 µM and the TGI [3] was greater than 100 µM. The GI50 [4] was 39.7 µM, the TGI [4] was greater than 100 µM and the GI50 [5] was 31.1 µM. For the same compound, the TGI [5] was greater than 100 µM, the GI50 [6] was 18.1 µM and the TGI [6] was 44.2 µM. The GI50 [7] was greater than 100 µM, the TGI [7] was greater than 100 µM and the GI50 [8] was 17.3 µM. For the same compound, the TGI [8] was 44.5 µM, the GI50 [9] was 42.6 µM and the TGI [9] was greater than 100 µM. The GI50 [10] was 48.7 µM and the TGI [10] was greater than 100 µM.
In the case of `CCN(CCCN(C)C)Cc1cc(I)cc(C)c1O`, the GI50 [1] is reported as 12.7 µM, the TGI [1] is reported as 27.9 µM and the GI50 [2] is reported as 20 µM. The TGI [2] was 44.7 µM, the GI50 [3] was 38.8 µM and the TGI [3] was greater than 100 µM. For the same compound, the GI50 [4] was 21.2 µM, the TGI [4] was 43.6 µM and the GI50 [5] was 18.6 µM. It also gave a TGI [5] of 40 µM, a GI50 [6] of 18.9 µM and a TGI [6] of 36.8 µM. The GI50 [7] was 19.8 µM, the TGI [7] was 36.8 µM and the GI50 [8] was 16.4 µM. The TGI [8] was 37.1 µM, the GI50 [9] was 17.1 µM and the TGI [9] was 31.9 µM. For the same compound, the GI50 [10] was 4.85 µM and the TGI [10] was 22.6 µM.
In the case of `CC(C)c1[nH]nc(C(N)=O)c1N=NN(C)C`, the TGI [1] is reported as greater than 100 µM, the TGI [2] is reported as greater than 100 µM and the TGI [3] is reported as 71.6 µM. For the same compound, the TGI [4] was greater than 100 µM, the TGI [5] was greater than 100 µM and the TGI [6] was greater than 100 µM. For the same compound, the TGI [7] was greater than 100 µM, the TGI [8] was greater than 100 µM and the TGI [9] was greater than 100 µM. The TGI [10] was greater than 100 µM.
Work on `O=c1[nH]c2ccccc2c2ccccc12` yielded a GI50 [1] greater than 100 µM, a TGI [1] greater than 100 µM and a GI50 [2] greater than 100 µM. It also gave a TGI [2] greater than 100 µM, a GI50 [3] greater than 100 µM and a TGI [3] greater than 100 µM. For the same compound, the GI50 [4] was greater than 100 µM, the TGI [4] was greater than 100 µM and the GI50 [5] was greater than 100 µM. It also gave a TGI [5] greater than 100 µM, a GI50 [6] greater than 100 µM and a TGI [6] greater than 100 µM. The GI50 [7] was greater than 100 µM, the TGI [7] was greater than 100 µM and the GI50 [8] was greater than 100 µM. For the same compound, the TGI [8] was greater than 100 µM, the GI50 [9] was greater than 100 µM and the TGI [9] was greater than 100 µM. It also gave a GI50 [10] greater than 100 µM and a TGI [10] greater than 100 µM.
Work on `COc1ccc2c(c1OC)C[C@@H]1c3c(cc4c(c3-2)OCO4)CCN1C` yielded a TGI [1] greater than 100 µM, a TGI [2] greater than 100 µM and a TGI [3] of 47 µM. The TGI [4] was greater than 100 µM, the TGI [5] was 63.9 µM and the TGI [6] was 40.3 µM. For the same compound, the TGI [7] was greater than 100 µM, the TGI [8] was 43.8 µM and the TGI [9] was greater than 100 µM. The TGI [10] was 74.6 µM.
`CC(N)C(Cc1ccc(Cl)cc1)c1ccc(Cl)cc1` (stereo not given) showed a GI50 [1] of 13.7 µM, a TGI [1] of 28.1 µM and a GI50 [2] of 8.48 µM. It also gave a TGI [2] of 22.6 µM, a GI50 [3] of 17.5 µM and a TGI [3] of 39.3 µM. For the same compound, the GI50 [4] was 12.3 µM, the TGI [4] was 25.9 µM and the GI50 [5] was 10.2 µM. For the same compound, the TGI [5] was 24.3 µM, the GI50 [6] was 1.89 µM and the TGI [6] was 3.97 µM. It also gave a GI50 [7] of 8.17 µM, a TGI [7] of 22.1 µM and a GI50 [8] of 6.01 µM. For the same compound, the TGI [8] was 19.6 µM, the GI50 [9] was 4.46 µM and the TGI [9] was 16.9 µM. The GI50 [10] was 12.6 µM and the TGI [10] was 26.2 µM.
Work on `CC(=O)Nc1ccc2c(c1)C(c1ccccc1Cl)=Nc1c(n[nH]c1C)N2` yielded a GI50 [1] of 6.58 µM, a TGI [1] greater than 25 µM and a GI50 [2] of 0.253 µM. It also gave a TGI [2] greater than 25 µM, a GI50 [3] of 0.57 µM and a TGI [3] greater than 17.7 µM. The GI50 [4] was 1.1 µM, the TGI [4] was greater than 25 µM and the GI50 [5] was 7.79 µM. The TGI [5] was greater than 25 µM, the GI50 [6] was 1.53 µM and the TGI [6] was greater than 22 µM. The GI50 [7] was greater than 25 µM, the TGI [7] was greater than 25 µM and the GI50 [8] was 6.07 µM. The TGI [8] was greater than 25 µM, the GI50 [9] was 1.55 µM and the TGI [9] was greater than 25 µM. For the same compound, the GI50 [10] was 4.13 µM and the TGI [10] was greater than 25 µM.
`COc1cc(/C=C\c2cc(OC)c(OC)c(OC)c2)cc(N/C=C\C(=O)c2ccc(OC(F)(F)F)cc2)c1OC` showed a GI50 [1] of 5.9 µM, a TGI [1] greater than 100 µM and a GI50 [2] of 3.69 µM. It also gave a TGI [2] greater than 100 µM, a GI50 [3] of 19.9 µM and a TGI [3] greater than 100 µM. For the same compound, the GI50 [4] was 3.46 µM, the TGI [4] was greater than 100 µM and the GI50 [5] was 4.34 µM. It also gave a TGI [5] greater than 100 µM, a GI50 [6] of 2.98 µM and a TGI [6] of 9.37 µM. It also gave a GI50 [7] of 14.7 µM, a TGI [7] greater than 100 µM and a GI50 [8] of 6.86 µM. It also gave a TGI [8] greater than 100 µM, a GI50 [9] of 4.09 µM and a TGI [9] greater than 100 µM. The GI50 [10] was 4.79 µM and the TGI [10] was greater than 100 µM.
`Nc1nccc(-c2c(-c3ccc(F)cc3)ncn2C2CCNCC2)n1` was tested, and the GI50 [1] was 17.2 µM and 12 µM, the TGI [1] was greater than 25 µM and the GI50 [2] was 4.26 µM and 4.01 µM. For the same compound, the TGI [2] was greater than 25 µM, the GI50 [3] was 1.27 µM and 3.97 µM and the TGI [3] was > 21.2 µM and 20.1 µM. For the same compound, the GI50 [4] was 3.67 µM and 1.95 µM, the TGI [4] was greater than 25 µM and the GI50 [5] was 16 µM and 5.59 µM. The TGI [5] was greater than 25 µM, the GI50 [6] was 0.623 µM and 1.01 µM and the TGI [6] was > 7.09 µM and 11.1 µM. For the same compound, the GI50 [7] was 8.72 µM and 5.23 µM, the TGI [7] was > 25 µM and 21.4 µM and the GI50 [8] was 11.1 µM and 4.61 µM. The TGI [8] was greater than 25 µM, the GI50 [9] was 4.25 µM and 1.38 µM and the TGI [9] was greater than 25 µM. For the same compound, the GI50 [10] was 7.66 µM and 2.79 µM and the TGI [10] was > 25 µM and 14.8 µM.
`OCCN1CCN(CCCN2c3ccccc3Sc3ccc(Cl)cc32)CC1` was tested, and the GI50 [1] was 4.49 µM, the TGI [1] was 16.6 µM and the GI50 [2] was 1.91 µM. The TGI [2] was 3.69 µM, the GI50 [3] was 5.26 µM and the TGI [3] was 19.2 µM. It also gave a GI50 [4] of 1.9 µM, a TGI [4] of 4.33 µM and a GI50 [5] of 1.87 µM. For the same compound, the TGI [5] was 3.98 µM, the GI50 [6] was 1.61 µM and the TGI [6] was 3 µM. For the same compound, the GI50 [7] was 1.79 µM, the TGI [7] was 3.59 µM and the GI50 [8] was 1.76 µM. It also gave a TGI [8] of 3.29 µM, a GI50 [9] of 1.77 µM and a TGI [9] of 3.52 µM. The GI50 [10] was 1.65 µM and the TGI [10] was 3.08 µM.
Compound `CCC(C)[C@H]1O[C@]2(CC[C@@H]1C)C[C@@H]1C[C@@H](C/C=C(\C)[C@@H](OC3C[C@H](OC)C(O[C@H]4C[C@H](OC)[C@@H](O)[C@H](C)O4)[C@H](C)O3)[C@@H](C)/C=C/C=C3\CO[C@@H]4[C@H](O)C(C)=C[C@@H](C(=O)O1)[C@]34O)O2` (stereo not given in full) has a GI50 [1] of 2.73 µM, a TGI [1] of 7.3 µM and a GI50 [2] of 3.77 µM. For the same compound, the TGI [2] was 14 µM, the GI50 [3] was 1.58 µM and the TGI [3] was 3.79 µM. It also gave a GI50 [4] of 2.21 µM, a TGI [4] of 10.6 µM and a GI50 [5] of 3.66 µM. For the same compound, the TGI [5] was 14 µM, the GI50 [6] was 1.63 µM and the TGI [6] was 3.1 µM. For the same compound, the GI50 [7] was 2.74 µM, the TGI [7] was 14.5 µM and the GI50 [8] was 1.89 µM. The TGI [8] was 6.5 µM, the GI50 [9] was 3.44 µM and the TGI [9] was 13.8 µM. It also gave a GI50 [10] of 3.08 µM and a TGI [10] of 12.7 µM.
`CN(c1ncccc1CNc1nc(Nc2ccc3c(c2)CC(=O)N3)ncc1C(F)(F)F)S(C)(=O)=O` was tested, and the GI50 [1] was 2.21 µM and 2.53 µM, the TGI [1] was 7 µM and 9.25 µM and the GI50 [2] was 0.367 µM and 0.425 µM. For the same compound, the TGI [2] was 4.52 µM and 7.35 µM, the GI50 [3] was 2.38 µM and 2.25 µM and the TGI [3] was 7.97 µM and > 10 µM. The GI50 [4] was 2.17 µM and 2.76 µM, the TGI [4] was greater than 47.3 µM and the GI50 [5] was 3.02 µM and 2.51 µM. For the same compound, the TGI [5] was greater than 83.8 µM, the GI50 [6] was 0.601 µM and 1.11 µM and the TGI [6] was 2.08 µM and 3.03 µM. The GI50 [7] was 2.98 µM and 2.89 µM, the TGI [7] was 10.2 µM and > 10 µM and the GI50 [8] was 1.4 µM. The TGI [8] was 3.62 µM, the GI50 [9] was 1.56 µM and 2.89 µM and the TGI [9] was greater than 32.7 µM. The GI50 [10] was 1.87 µM and 1.75 µM and the TGI [10] was 7.82 µM and > 10 µM.
